Data from US11046716B2, “Beta-lactamase inhibitors” (priority 2015, dated 2021).

Assays:
[1] = biological target: T1, SHV-5 (Klebsiella pneumoniae, UniProt P0A3M1); assay: β-lactamase enzyme inhibition assay, SHV-5 (cefotaxime substrate); assay type: biochemical
T1 construct: made in house; host or cells: E. coli BL21(DE3)
Outline: (§1)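 Compounds are mixed with purified, untagged recombinant β-lactamase and held 15 min at 37 °C. Substrate is then added: nitrocefin (100 μM final) for OXA-1, imipenem for KPC-2, cefotaxime for SHV-5. Absorbance is followed immediately, and percent inhibition per concentration gives the IC50.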

[2] = biological target: T2, KPC-2 (Klebsiella pneumoniae, UniProt Q9F663); assay: β-lactamase enzyme inhibition assay, KPC-2 (imipenem substrate); assay type: biochemical; details: Class A; imipenem substrate, 300 nm; read-out: KPC-2
T2 construct: made in house; host or cells: E. coli BL21(DE3)
T2 sequence (Q9F663 25-293, looked up): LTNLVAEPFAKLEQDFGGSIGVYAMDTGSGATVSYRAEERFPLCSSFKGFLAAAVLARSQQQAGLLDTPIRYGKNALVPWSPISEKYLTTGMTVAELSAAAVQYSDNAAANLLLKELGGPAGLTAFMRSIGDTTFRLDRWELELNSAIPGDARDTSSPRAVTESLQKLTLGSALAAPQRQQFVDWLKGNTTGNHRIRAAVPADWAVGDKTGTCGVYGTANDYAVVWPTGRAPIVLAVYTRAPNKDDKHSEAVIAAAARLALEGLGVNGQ
Outline: as §1

[3] = biological target: T3, VIM-2 (Escherichia coli, UniProt Q5U7L7); assay: β-lactamase enzyme inhibition assay, VIM-2 (nitrocefin substrate); assay type: biochemical; details: Class B; nitrocefin substrate, 486 nm; read-out: VIM-2
T3 construct: made in house; host or cells: E. coli BL21(DE3)
Outline: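 First, VIM-2 purified by repeated anion exchange at pH 7.5 is mixed with inhibitor and held 15 min at 37 °C. Next, nitrocefin (final 100 μM) is dispensed and absorbance at 486 nm monitored immediately for 10 min. Rates versus uninhibited controls give IC50.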

[4] = biological target: T4, AmpC (Enterobacter cloacae, UniProt P05364); assay: β-lactamase enzyme inhibition assay, p99 AmpC (nitrocefin substrate); assay type: biochemical
T4 construct: made in house; host or cells: E. coli BL21(DE3)
T4 sequence (P05364 21-381): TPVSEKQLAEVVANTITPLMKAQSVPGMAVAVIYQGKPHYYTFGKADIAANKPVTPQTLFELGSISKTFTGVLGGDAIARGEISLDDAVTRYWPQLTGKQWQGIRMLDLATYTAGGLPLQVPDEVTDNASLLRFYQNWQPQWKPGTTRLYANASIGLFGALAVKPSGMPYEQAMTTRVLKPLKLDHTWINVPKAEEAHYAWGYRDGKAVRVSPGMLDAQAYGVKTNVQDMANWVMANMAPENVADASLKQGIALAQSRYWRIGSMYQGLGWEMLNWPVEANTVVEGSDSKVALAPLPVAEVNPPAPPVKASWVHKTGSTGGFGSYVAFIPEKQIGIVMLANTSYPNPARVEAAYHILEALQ
Outline: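 Compounds are mixed with purified, untagged recombinant β-lactamase and held 15 min at 37 °C. Substrate is then added. Absorbance is followed immediately, and percent inhibition per concentration gives the IC50.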

[5] = biological target: OXA-48 (UniProt Q6XEC0); assay: β-lactamase enzyme inhibition assay, Class D oxacillinase; assay type: biochemical; details: read-out: OXA-48
[6] = test system: E. coli expressing the Class A Extended Spectrum Beta-Lactamase (ESBL) CTX-M-15; assay: Broth microdilution MIC assay with ceftazidime, E. coli CTX-M-15; assay type: cell-based; details: Fixed CAZ (ceftazidime) 4 μg/mL; E. coli ESBL4 CTX-M-15
Outline: (§2)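 Strains grown 3-5 hours in CAMHB are inoculated by the CLSI broth microdilution method onto compound dilutions (16 to 0.125 μg/mL) overlaid with β-lactam at 4 μg/ml final. After 16-20 hours at 37° C, the lowest compound concentration inhibiting growth is taken as the MIC.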

[7] = test system: E. cloacae expressing the Class C P99; assay: Broth microdilution MIC assay with ceftazidime, E. cloacae P99; assay type: cell-based; details: Fixed CAZ (ceftazidime) 4 μg/mL; E. cl. 144200 p99 AmpC
Outline: as §2

[8] = test system: K. pneumoniae expressing the Class A carbapenemase KPC-2; assay: Broth microdilution MIC assay with meropenem, K. pneumoniae KPC-2; assay type: cell-based; details: Fixed Mero (meropenem) 4 μg/mL; K. p. 156319 KPC-3
Outline: as §2

[9] = test system: P. aeruginosa expressing the Class B carbapenemase VIM-2; assay: Broth microdilution MIC assay with meropenem, P. aeruginosa VIM-2; assay type: cell-based; details: Fixed Mero (meropenem) 4 μg/mL; P. aerug. 2775 VIM-2
Outline: as §2

[10] = test system: K. pneumoniae expressing the class A carbapenemase KPC-2 and the class B carbapenemase VIM-4; assay: Broth microdilution MIC assay with meropenem, K. pneumoniae KPC-2 and VIM-4; assay type: cell-based; details: Fixed Mero (meropenem) 4 μg/mL; K. p. A-1797 KPC-2 VIM-4
Outline: as §2

[11] = test system: K. pneumoniae producing the Class D carbapenemase OXA-48; assay: Broth microdilution MIC assay with meropenem, K. pneumoniae OXA-48; assay type: cell-based; details: Fixed Mero (meropenem) 4 μg/mL; K. p. 11978 OXA-48
Outline: as §2

T1 sequence (P0A3M1 22-286): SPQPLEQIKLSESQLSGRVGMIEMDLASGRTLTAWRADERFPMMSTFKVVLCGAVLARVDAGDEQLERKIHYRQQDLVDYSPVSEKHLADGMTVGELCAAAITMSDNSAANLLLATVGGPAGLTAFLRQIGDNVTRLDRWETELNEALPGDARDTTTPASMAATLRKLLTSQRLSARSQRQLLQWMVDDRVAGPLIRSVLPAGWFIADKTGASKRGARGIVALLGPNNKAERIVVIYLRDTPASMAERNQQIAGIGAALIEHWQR

| SMILES | IC50 [1] | IC50 [2] | IC50 [3] | IC50 [4] | IC50 [5] | MIC (μg/mL) of Exemplary Compounds in presence of fixed β-lactams: E. coli ESBL4 CTX-M-15 [6] | MIC (μg/mL) of Exemplary Compounds in presence of fixed β-lactams: E. cl. 144200 p99 AmpC [7] | MIC (μg/mL) of Exemplary Compounds in presence of fixed β-lactams: K. p. 156319 KPC-3 [8] | MIC (μg/mL) of Exemplary Compounds in presence of fixed β-lactams: P. aerug. 2775 VIM-2 [9] | MIC (μg/mL) of Exemplary Compounds in presence of fixed β-lactams: K. p. A-1797 KPC-2 VIM-4 [10] | MIC (μg/mL) of Exemplary Compounds in presence of fixed β-lactams: K. p. 11978 OXA-48 [11] |
| --- | --- | --- | --- | --- | --- | --- | --- | --- | --- | --- | --- |
| CNCc1nnn(CC(=O)N[C@H]2Cc3cccc(C(=O)O)c3OB2O)c1CO [Example 14, (R)-2-hydroxy-3-(2-(5-(hydroxymethyl)-4-((methylamino)methyl)-1H-1,2,3-triazol-1-yl)acetamido)-3,4-dihydro-2H-benzo[e][1,2]oxaborinine-8-carboxylic acid] | 100 to 1000 nM | 100 to 1000 nM | 100 to 1000 nM | < 100 nM | 100 to 1000 nM | B (B represents an MIC between 1 and 16 μg/mL inclusive) | C (C represents an MIC of <1 μg/mL) | B (B represents an MIC between 1 and 16 μg/mL inclusive) | B (B represents an MIC between 1 and 16 μg/mL inclusive) | B (B represents an MIC between 1 and 16 μg/mL inclusive) | B (B represents an MIC between 1 and 16 μg/mL inclusive) |
| CNCc1c(CO)nnn1CC(=O)N[C@H]1Cc2cccc(C(=O)O)c2OB1O [Example 15, (R)-2-hydroxy-3-(2-(4-(hydroxymethyl)-5-((methylamino)methyl)-1H-1,2,3-triazol-1-yl)acetamido)-3,4-dihydro-2H-benzo[e][1,2]oxaborinine-8-carboxylic acid] | 100 to 1000 nM | 100 to 1000 nM | < 100 nM | < 100 nM | 100 to 1000 nM | C (C represents an MIC of <1 μg/mL) | C (C represents an MIC of <1 μg/mL) | B (B represents an MIC between 1 and 16 μg/mL inclusive) | C (C represents an MIC of <1 μg/mL) | B (B represents an MIC between 1 and 16 μg/mL inclusive) | B (B represents an MIC between 1 and 16 μg/mL inclusive) |
| O=C(Cn1nnc(C(=O)O)c1C(=O)O)N[C@H]1Cc2cccc(C(=O)O)c2OB1O [Example 16, (R)-1-(2-((8-carboxy-2-hydroxy-3,4-dihydro-2H-benzo[e][1,2]oxaborinin-3-yl)amino)-2-oxoethyl)-1H-1,2,3-triazole-4,5-dicarboxylic acid] | < 100 nM | < 100 nM | 1000 to 10000 nM | < 100 nM | < 100 nM | B (B represents an MIC between 1 and 16 μg/mL inclusive) | C (C represents an MIC of <1 μg/mL) | B (B represents an MIC between 1 and 16 μg/mL inclusive) | B (B represents an MIC between 1 and 16 μg/mL inclusive) | B (B represents an MIC between 1 and 16 μg/mL inclusive) | B (B represents an MIC between 1 and 16 μg/mL inclusive) |
| NCc1nc(CC(=O)N[C@H]2Cc3cccc(C(=O)O)c3OB2O)cs1 [Example 19, (R)-3-(2-(2-(aminomethyl)thiazol-4-yl)acetamido)-2-hydroxy-3,4-dihydro-2H-benzo[e][1,2]oxaborinine-8-carboxylic acid] | < 100 nM | < 100 nM | 100 to 1000 nM | < 100 nM | < 100 nM | C (C represents an MIC of <1 μg/mL) | C (C represents an MIC of <1 μg/mL) | B (B represents an MIC between 1 and 16 μg/mL inclusive) | C (C represents an MIC of <1 μg/mL) | B (B represents an MIC between 1 and 16 μg/mL inclusive) | B (B represents an MIC between 1 and 16 μg/mL inclusive) |
| Nc1nnc(CC(=O)N[C@H]2Cc3cccc(C(=O)O)c3OB2O)[nH]1 [Example 20, (R)-3-(2-(5-amino-4H-1,2,4-triazol-3-yl)acetamido)-2-hydroxy-3,4-dihydro-2H-benzo[e][1,2]oxaborinine-8-carboxylic acid] | < 100 nM | < 100 nM | 100 to 1000 nM | 100 to 1000 nM | 100 to 1000 nM | C (C represents an MIC of <1 μg/mL) | C (C represents an MIC of <1 μg/mL) | B (B represents an MIC between 1 and 16 μg/mL inclusive) | B (B represents an MIC between 1 and 16 μg/mL inclusive) | B (B represents an MIC between 1 and 16 μg/mL inclusive) | B (B represents an MIC between 1 and 16 μg/mL inclusive) |
| O=C(Cn1cc(CNCCO)nn1)N[C@H]1Cc2cccc(C(=O)O)c2OB1O [Example 21, (R)-2-hydroxy-3-(2-(4-(((2-hydroxyethyl)amino)methyl)-1H-1,2,3-triazol-1-yl)acetamido)-3,4-dihydro-2H-benzo[e][1,2]oxaborinine-8-carboxylic acid] | < 100 nM | < 100 nM | < 100 nM | < 100 nM | 100 to 1000 nM | C (C represents an MIC of <1 μg/mL) | C (C represents an MIC of <1 μg/mL) | B (B represents an MIC between 1 and 16 μg/mL inclusive) | B (B represents an MIC between 1 and 16 μg/mL inclusive) | B (B represents an MIC between 1 and 16 μg/mL inclusive) | B (B represents an MIC between 1 and 16 μg/mL inclusive) |
| N=CNCc1cn(CC(=O)N[C@H]2Cc3cccc(C(=O)O)c3OB2O)nn1 [Example 22, (R)-3-(2-(4-(formimidamidomethyl)-1H-1,2,3-triazol-1-yl)acetamido)-2-hydroxy-3,4-dihydro-2H-benzo[e][1,2]oxaborinine-8-carboxylic acid] | 100 to 1000 nM | 100 to 1000 nM | 100 to 1000 nM | < 100 nM | 1000 to 10000 nM | C (C represents an MIC of <1 μg/mL) | C (C represents an MIC of <1 μg/mL) | C (C represents an MIC of <1 μg/mL) | C (C represents an MIC of <1 μg/mL) | B (B represents an MIC between 1 and 16 μg/mL inclusive) | B (B represents an MIC between 1 and 16 μg/mL inclusive) |
| NCc1nnc(CC(=O)N[C@H]2Cc3cccc(C(=O)O)c3OB2O)[nH]1 [Example 23, (R)-3-(2-(5-(aminomethyl)-4H-1,2,4-triazol-3-yl)acetamido)-2-hydroxy-3,4-dihydro-2H-benzo[e][1,2]oxaborinine-8-carboxylic acid] | < 100 nM | < 100 nM | 100 to 1000 nM | < 100 nM | 100 to 1000 nM | C (C represents an MIC of <1 μg/mL) | C (C represents an MIC of <1 μg/mL) | C (C represents an MIC of <1 μg/mL) | C (C represents an MIC of <1 μg/mL) | B (B represents an MIC between 1 and 16 μg/mL inclusive) | B (B represents an MIC between 1 and 16 μg/mL inclusive) |
